Data as given in the supplement of paper PMC10307832.

Legend:
Assay in all cases: relative viability (nuclei count vs DMSO), 5 days (fraction); higher = more cells survive
Sunitinib + Olaparib = compound: CCN(CC)CCNC(=O)c1c(C)[nH]c(/C=C2\C(=O)Nc3ccc(F)cc32)c1C [Sunitinib] + O=C(c1cc(Cc2n[nH]c(=O)c3ccccc23)ccc1F)N1CCN(C(=O)C2CC2)CC1 [Olaparib] (partner 8 µM)
In short: (§1)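 Nuclei were stained with Hoechst during a one-step fixation (final 0.05% Triton X-100, 1% formaldehyde, 1 ug/ml Hoechst) carried out 5 days after dosing, then counted on 4× images. The cells, lung cancer lines in 1536-well plates, had been dosed by pin tool the day after seeding with one drug alone or a fixed anchor-drug dose plus five library-drug doses (not always all listed) in √10 steps. Relative viability is the nuclei count in treated wells divided by that in vehicle wells, and each value is the median of duplicate plates.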

Sunitinib + Pemetrexed = compound: CCN(CC)CCNC(=O)c1c(C)[nH]c(/C=C2\C(=O)Nc3ccc(F)cc32)c1C [Sunitinib] + Nc1nc2[nH]cc(CCc3ccc(C(=O)N[C@@H](CCC(=O)O)C(=O)O)cc3)c2c(=O)[nH]1 [Pemetrexed] (partner 0.2 µM)
In short: as §1

Sunitinib + Vorinostat = compound: CCN(CC)CCNC(=O)c1c(C)[nH]c(/C=C2\C(=O)Nc3ccc(F)cc32)c1C [Sunitinib] + O=C(CCCCCCC(=O)Nc1ccccc1)NO [Vorinostat] (partner 1 µM)
In short: as §1

Sunitinib + Linsitinib = compound: CCN(CC)CCNC(=O)c1c(C)[nH]c(/C=C2\C(=O)Nc3ccc(F)cc32)c1C [Sunitinib] + C[C@]1(O)C[C@@H](c2nc(-c3ccc4ccc(-c5ccccc5)nc4c3)c3c(N)nccn32)C1 [Linsitinib] (partner 1 µM)
In short: as §1

Cell Line	relative viability (Sunitinib + Olaparib; first compound 0.02 µM)	relative viability (Sunitinib + Olaparib; first compound 0.06325 µM)	relative viability (Sunitinib + Olaparib; first compound 0.2 µM)	relative viability (Sunitinib + Olaparib; first compound 0.6325 µM)	relative viability (Sunitinib + Olaparib; first compound 2 µM)	relative viability (Sunitinib + Pemetrexed; first compound 0.02 µM)	relative viability (Sunitinib + Pemetrexed; first compound 0.06325 µM)	relative viability (Sunitinib + Pemetrexed; first compound 0.2 µM)	relative viability (Sunitinib + Pemetrexed; first compound 0.6325 µM)	relative viability (Sunitinib + Pemetrexed; first compound 2 µM)	relative viability (Sunitinib + Vorinostat; first compound 0.02 µM)	relative viability (Sunitinib + Vorinostat; first compound 0.06325 µM)	relative viability (Sunitinib + Vorinostat; first compound 0.2 µM)	relative viability (Sunitinib + Vorinostat; first compound 0.6325 µM)	relative viability (Sunitinib + Vorinostat; first compound 2 µM)	relative viability (Sunitinib + Linsitinib; first compound 0.02 µM)	relative viability (Sunitinib + Linsitinib; first compound 0.06325 µM)	relative viability (Sunitinib + Linsitinib; first compound 0.2 µM)	relative viability (Sunitinib + Linsitinib; first compound 0.6325 µM)	relative viability (Sunitinib + Linsitinib; first compound 2 µM)
NCI-H1734	0.552	0.618	0.691	0.619	0.539	0.406	0.426	0.396	0.411	0.411	0.694	0.91	1.05	0.782	0.782	0.844	0.95	0.936	0.944	0.756
NCI-H1755	0.859	0.881	0.93	0.961	0.91	0.427	0.502	0.636	0.407	0.52	0.735	0.878	0.897	0.758	0.842	0.996	0.98	–	0.979	0.941
NCI-H1793	–	0.726	1.03	1	0.706	–	–	1.29	0.949	0.831	–	0.867	0.989	0.91	0.825	–	0.856	1.08	0.838	0.93
NCI-H1915	0.261	0.288	0.268	0.245	0.289	0.428	0.486	0.499	0.527	0.484	0.483	0.538	0.562	0.5	0.505	1.08	1.15	1.14	1.09	1.11
NCI-H1944	0.39	0.414	0.473	0.43	0.447	0.588	–	0.772	0.684	0.655	0.547	0.736	0.659	0.625	0.559	1.12	1.18	1.28	1.25	1.16
NCI-H1975	0.742	0.8	0.946	0.868	0.714	0.289	0.318	0.317	0.298	0.305	0.693	0.714	0.77	0.733	0.666	–	0.969	1.01	0.986	0.868
NCI-H1993	1.02	0.979	1.12	0.844	1.03	0.436	0.563	0.584	0.55	0.575	0.857	0.727	0.911	0.747	0.9	0.711	0.744	–	0.8	0.664
NCI-H2009	0.675	0.739	0.717	0.799	0.778	1.03	1.01	1.1	1.08	1.12	0.725	0.765	0.828	0.746	0.723	1.2	1.18	1.2	1.31	1.27
NCI-H2023	0.487	0.485	0.518	0.462	0.465	0.235	0.307	0.265	0.301	0.222	0.575	0.585	0.906	0.812	0.488	0.709	0.594	0.754	0.788	0.582
NCI-H2085	0.777	0.801	0.819	0.808	0.787	0.909	–	1.04	0.952	0.87	0.784	0.827	0.84	0.813	0.807	–	0.923	0.939	0.945	1.02
NCI-H2087	0.605	0.689	0.822	0.674	0.56	0.711	0.693	0.559	0.626	0.693	0.748	0.664	0.667	0.715	0.712	–	1.01	0.938	–	0.889
NCI-H2126	0.924	0.978	0.978	1	0.884	0.628	0.826	0.777	0.786	0.751	0.73	0.906	0.857	0.808	0.84	0.719	0.695	0.74	0.759	0.717
NCI-H2228	0.608	0.55	0.98	0.772	0.544	0.343	0.313	0.37	0.349	0.349	0.412	0.705	0.626	1.03	0.764	0.611	0.584	0.841	0.808	0.349
NCI-H2347	0.596	0.611	0.695	0.609	0.572	0.415	0.446	0.419	0.44	0.458	0.648	0.653	0.723	0.554	0.757	0.93	0.991	1.11	0.991	0.978
NCI-H2405	0.855	0.965	0.88	0.96	0.93	1.07	1.1	1.21	1.13	1.13	1.09	0.991	1.12	1.08	1.04	–	1.02	0.976	1.08	0.917
NCI-H3122	0.636	0.692	0.657	0.606	0.585	0.201	0.215	0.202	0.185	0.205	0.958	1.02	1.03	1.05	1.02	1.02	1.07	1.04	0.992	1.05
PC-3 [JPC-3]	1.05	1.12	1.22	1.12	0.926	1.35	1.08	1.13	1.11	1.03	0.919	0.805	0.858	0.904	0.928	0.978	0.975	0.951	0.987	0.881
